Measured values as given in PubChem BioAssay (NCI).
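Exposure lasted 48 hours, with cells grown in 96-well plates and compounds tested at five concentrations. TGI: concentration producing complete growth inhibition.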

How the values were obtained:
Assay in all cases: DTP human tumour cell line panel, 48 h
A498 renal = test system: A498 renal
CCRF-CEM leukemia = test system: CCRF-CEM leukemia
PC-3 prostate = test system: PC-3 prostate
SW-620 colon = test system: SW-620 colon
MDA-MB-231 breast = test system: MDA-MB-231 breast
T-47D breast = test system: T-47D breast
SK-MEL-28 melanoma = test system: SK-MEL-28 melanoma
NCI-H23 lung = test system: NCI-H23 lung
SNB-75 CNS = test system: SNB-75 CNS
HOP-62 NSCLC = test system: HOP-62 NSCLC
UO-31 renal = test system: UO-31 renal
ACHN renal = test system: ACHN renal
UACC-62 melanoma = test system: UACC-62 melanoma
MDA-MB-435 = test system: MDA-MB-435
K-562 leukemia = test system: K-562 leukemia
A549 NSCLC = test system: A549 NSCLC
SF-539 CNS = test system: SF-539 CNS
NCI/ADR-RES ovarian = test system: NCI/ADR-RES ovarian
LOX IMVI melanoma = test system: LOX IMVI melanoma
SK-MEL-5 melanoma = test system: SK-MEL-5 melanoma
MOLT-4 leukemia = test system: MOLT-4 leukemia
UACC-257 melanoma = test system: UACC-257 melanoma
MDA-N = test system: MDA-N
SN12C renal = test system: SN12C renal
RXF 393 renal = test system: RXF 393 renal
DU-145 prostate = test system: DU-145 prostate
SF-268 CNS = test system: SF-268 CNS
NCI-H460 lung = test system: NCI-H460 lung
COLO 205 colon = test system: COLO 205 colon
SNB-19 CNS = test system: SNB-19 CNS
U251 CNS = test system: U251 CNS
SK-OV-3 ovarian = test system: SK-OV-3 ovarian
OVCAR-8 ovarian = test system: OVCAR-8 ovarian
OVCAR-5 ovarian = test system: OVCAR-5 ovarian
HCT-116 colon = test system: HCT-116 colon
MALME-3M melanoma = test system: MALME-3M melanoma
MCF7 breast = test system: MCF7 breast
OVCAR-4 ovarian = test system: OVCAR-4 ovarian
HCC-2998 colon = test system: HCC-2998 colon
SK-MEL-2 melanoma = test system: SK-MEL-2 melanoma
SF-295 CNS = test system: SF-295 CNS
HS 578T breast = test system: HS 578T breast
HT29 colon = test system: HT29 colon
786-0 renal = test system: 786-0 renal
BT-549 breast = test system: BT-549 breast
RPMI-8226 leukemia = test system: RPMI-8226 leukemia
SR leukemia = test system: SR leukemia
KM12 colon = test system: KM12 colon
EKVX NSCLC = test system: EKVX NSCLC
M14 melanoma = test system: M14 melanoma
NCI-H522 lung = test system: NCI-H522 lung
IGROV1 ovarian = test system: IGROV1 ovarian
TK-10 renal = test system: TK-10 renal
OVCAR-3 ovarian = test system: OVCAR-3 ovarian
CAKI-1 renal = test system: CAKI-1 renal
HOP-92 NSCLC = test system: HOP-92 NSCLC
HL-60(TB) leukemia = test system: HL-60(TB) leukemia
HCT-15 colon = test system: HCT-15 colon
NCI-H226 lung = test system: NCI-H226 lung

**Q.** How did the TGI (A498 renal) turn out when `COC(=O)C1=CSC2(S1)C(C(=O)OC)=CSc1c2ssc1=Nc1ccccc1` (configuration not stated) was run?
**A.** The TGI was 6.54 µM.

**Q.** What about the TGI (CCRF-CEM leukemia) of the same molecule?
**A.** The TGI was 7.96 µM.

**Q.** What about the TGI (PC-3 prostate) of the same molecule?
**A.** Its TGI is over 100 µM.

**Q.** And the TGI (SW-620 colon)?
**A.** The TGI was 8.76 µM.

**Q.** And the TGI (MDA-MB-231 breast)?
**A.** The TGI was 4.79 µM.

**Q.** And the TGI (T-47D breast)?
**A.** Its TGI is over 100 µM.

**Q.** And the TGI (SK-MEL-28 melanoma)?
**A.** The TGI was 5.76 µM.

**Q.** What about the TGI (NCI-H23 lung) of the same molecule?
**A.** The TGI was 8.43 µM.

**Q.** What about the TGI (SNB-75 CNS) of the same molecule?
**A.** The TGI was 6.09 µM.

**Q.** What about the TGI (HOP-62 NSCLC) of the same molecule?
**A.** Its TGI is 8.67 µM.

**Q.** What about the TGI (UO-31 renal) of the same molecule?
**A.** Its TGI is over 100 µM.

**Q.** What about the TGI (ACHN renal) of the same molecule?
**A.** The TGI was 6.57 µM.

**Q.** What about the TGI (UACC-62 melanoma) of the same molecule?
**A.** The TGI was 3.52 µM.

**Q.** And the TGI (MDA-MB-435)?
**A.** The TGI was 5.09 µM.

**Q.** And the TGI (K-562 leukemia)?
**A.** The TGI was 7.38 µM.

**Q.** What about the TGI (A549 NSCLC) of the same molecule?
**A.** The TGI was 14.6 µM.

**Q.** And the TGI (SF-539 CNS)?
**A.** The TGI was 2.96 µM.

**Q.** What about the TGI (NCI/ADR-RES ovarian) of the same molecule?
**A.** The TGI was 3.8 µM.

**Q.** What about the TGI (LOX IMVI melanoma) of the same molecule?
**A.** Its TGI is 4.1 µM.

**Q.** What about the TGI (SK-MEL-5 melanoma) of the same molecule?
**A.** Its TGI is 9.07 µM.

**Q.** And the TGI (MOLT-4 leukemia)?
**A.** The TGI was 3.55 µM.

**Q.** And the TGI (UACC-257 melanoma)?
**A.** Its TGI is 7.26 µM.

**Q.** And the TGI (MDA-N)?
**A.** Its TGI is over 100 µM.

**Q.** What about the TGI (SN12C renal) of the same molecule?
**A.** Its TGI is 4.3 µM.

**Q.** What about the TGI (RXF 393 renal) of the same molecule?
**A.** Its TGI is 6.12 µM.

**Q.** And the TGI (DU-145 prostate)?
**A.** The TGI was 16.2 µM.

**Q.** What about the TGI (SF-268 CNS) of the same molecule?
**A.** Its TGI is over 100 µM.

**Q.** And the TGI (NCI-H460 lung)?
**A.** Its TGI is over 100 µM.

**Q.** And the TGI (COLO 205 colon)?
**A.** The TGI was 4.37 µM.

**Q.** And the TGI (SNB-19 CNS)?
**A.** Its TGI is 8.71 µM.

**Q.** And the TGI (U251 CNS)?
**A.** The TGI was 10.1 µM.

**Q.** And the TGI (SK-OV-3 ovarian)?
**A.** The TGI was 9.9 µM.

**Q.** And the TGI (OVCAR-8 ovarian)?
**A.** The TGI was 6.23 µM.

**Q.** What about the TGI (OVCAR-5 ovarian) of the same molecule?
**A.** The TGI was 17.7 µM.

**Q.** What about the TGI (HCT-116 colon) of the same molecule?
**A.** The TGI was 4.06 µM.

**Q.** What about the TGI (MALME-3M melanoma) of the same molecule?
**A.** The TGI was 4.95 µM.

**Q.** What about the TGI (MCF7 breast) of the same molecule?
**A.** The TGI was over 100 µM.

**Q.** And the TGI (OVCAR-4 ovarian)?
**A.** Its TGI is 8.06 µM.

**Q.** And the TGI (HCC-2998 colon)?
**A.** Its TGI is 4.25 µM.

**Q.** What about the TGI (SK-MEL-2 melanoma) of the same molecule?
**A.** The TGI was 7.36 µM.

**Q.** What about the TGI (SF-295 CNS) of the same molecule?
**A.** The TGI was 7.09 µM.

**Q.** What about the TGI (HS 578T breast) of the same molecule?
**A.** The TGI was 8.34 µM.

**Q.** What about the TGI (HT29 colon) of the same molecule?
**A.** Its TGI is 5.85 µM.

**Q.** What about the TGI (786-0 renal) of the same molecule?
**A.** The TGI was 3.87 µM.

**Q.** And the TGI (BT-549 breast)?
**A.** The TGI was 22.6 µM.

**Q.** And the TGI (RPMI-8226 leukemia)?
**A.** The TGI was 2.87 µM.

**Q.** And the TGI (SR leukemia)?
**A.** The TGI was 3.56 µM.

**Q.** And the TGI (KM12 colon)?
**A.** The TGI was 10.1 µM.

**Q.** What about the TGI (EKVX NSCLC) of the same molecule?
**A.** The TGI was over 100 µM.

**Q.** What about the TGI (M14 melanoma) of the same molecule?
**A.** The TGI was 5.13 µM.

**Q.** What about the TGI (NCI-H522 lung) of the same molecule?
**A.** The TGI was 3.4 µM.

**Q.** And the TGI (IGROV1 ovarian)?
**A.** The TGI was 4.83 µM.

**Q.** And the TGI (TK-10 renal)?
**A.** Its TGI is 10.4 µM.

**Q.** And the TGI (OVCAR-3 ovarian)?
**A.** Its TGI is over 100 µM.

**Q.** What about the TGI (CAKI-1 renal) of the same molecule?
**A.** Its TGI is 32.9 µM.

**Q.** Which results are given for `CC12Nc3ccccc3N1C(=O)c1ccccc12` (configuration not stated)?
**A.** TGI (A498 renal): > 100 µM; TGI (CCRF-CEM leukemia): > 100 µM; TGI (PC-3 prostate): > 100 µM; TGI (SW-620 colon): > 100 µM; TGI (MDA-MB-231 breast): > 100 µM; TGI (T-47D breast): > 100 µM; TGI (HOP-92 NSCLC): > 100 µM; TGI (SK-MEL-28 melanoma): > 100 µM; TGI (NCI-H23 lung): > 100 µM; TGI (HOP-62 NSCLC): > 100 µM; TGI (UO-31 renal): > 100 µM; TGI (ACHN renal): > 100 µM; TGI (HL-60(TB) leukemia): > 100 µM; TGI (UACC-62 melanoma): > 100 µM; TGI (MDA-MB-435): > 100 µM; TGI (K-562 leukemia): > 100 µM; TGI (A549 NSCLC): > 100 µM; TGI (SF-539 CNS): > 100 µM; TGI (HCT-15 colon): > 100 µM; TGI (NCI/ADR-RES ovarian): > 100 µM; TGI (LOX IMVI melanoma): > 100 µM; TGI (SK-MEL-5 melanoma): > 100 µM; TGI (MOLT-4 leukemia): > 100 µM; TGI (UACC-257 melanoma): > 100 µM; TGI (MDA-N): > 100 µM; TGI (SN12C renal): > 100 µM; TGI (RXF 393 renal): > 100 µM; TGI (DU-145 prostate): > 100 µM; TGI (SF-268 CNS): > 100 µM; TGI (NCI-H460 lung): > 100 µM; TGI (COLO 205 colon): > 100 µM; TGI (SNB-19 CNS): > 100 µM; TGI (U251 CNS): > 100 µM; TGI (SK-OV-3 ovarian): > 100 µM; TGI (OVCAR-8 ovarian): > 100 µM; TGI (OVCAR-5 ovarian): > 100 µM; TGI (HCT-116 colon): > 100 µM; TGI (MCF7 breast): > 100 µM; TGI (OVCAR-4 ovarian): > 100 µM; TGI (HCC-2998 colon): > 100 µM; TGI (SK-MEL-2 melanoma): > 100 µM; TGI (SF-295 CNS): > 100 µM; TGI (HS 578T breast): > 100 µM; TGI (HT29 colon): > 100 µM; TGI (786-0 renal): > 100 µM; TGI (BT-549 breast): > 100 µM; TGI (NCI-H226 lung): > 100 µM; TGI (RPMI-8226 leukemia): > 100 µM; TGI (SR leukemia): > 100 µM; TGI (KM12 colon): > 100 µM; TGI (EKVX NSCLC): > 100 µM; TGI (M14 melanoma): > 100 µM; TGI (NCI-H522 lung): > 100 µM; TGI (IGROV1 ovarian): > 100 µM; TGI (TK-10 renal): > 100 µM; TGI (OVCAR-3 ovarian): > 100 µM; TGI (CAKI-1 renal): > 100 µM
